Measured values as given in BindingDB's records for doi:10.1021/jm970814z (University of Sydney, 1998).
Values joined by “and” are separate entries in the source; they are usually repeats but may differ in a detail not shown here. Equal values may be shown once.

Molecular target: CAD protein (Mesocricetus auratus)
Test: Compound ability to inhibit the catalytic activity of hamster Dihydroorotase (DHOase) expressed in Escherichia coli.

Row | SMILES | Ki
1 | O=C1CP(O)(O)=CC(C(=O)O)N1 (configuration not stated) [4-Hydroxy-4,6-dioxo-4lambda*5*-[1,4]azaphosphinane-2-carboxylic acid] | 4 µM
2 | O=C1CP(O)(S)=C[C@@H](C(=O)O)N1 (stereo partly drawn) [(2R,4S)-4-Mercapto-4,6-dioxo-4lambda*5*-[1,4]azaphosphinane-2-carboxylic acid] | 2.9 µM and 3.1 µM
